This is an account of results in PMC7822063, “Analogues of 2′-hydroxychalcone with modified C4-substituents as the inhibitors against human acetylcholinesterase” (Journal of Enzyme Inhibition and Medicinal Chemistry, 2020).

One test deals with human recombinant AChE (Homo sapiens, UniProt P22303). Kind of test: biochemical. As to conditions: for inhibition at 10 µM / IC50: mean of triplicate; for Selectivity index: IC50 (BuChE)/IC50 (AChE). How it is done:
To determine the inhibitory activity of the target compounds towards cholinesterases, the AChE and BuChE inhibition assays were performed in 96 well plates by the method of Ellman with slight modifications. […] Then, the mixture was incubated for 20 min at 37 °C. Subsequently, the reaction was initiated by addition of 50 μL (0.120 mM) of the substrate, acetylthiocholine (ATC) iodide or butyrylthiocholine (BTC) iodide (depending on the enzyme). […] Each assay was performed in triplicate. The percentage of inhibition was calculated using the following expression: (E–S)/E ×100 where E is the activity of the enzyme without test compound and S is the activity of the enzyme with the test compound. IC50 values were obtained from concentration-inhibition experiments by nonlinear regression analysis using PRISM® v5.0 (GraphPad Inc., San Diego, CA).
The designed 2′-hydroxychalcone derivatives were evaluated for their in vitro inhibitory activities against human recombinant AChE according to Ellman’s colorimetric assay method.

The target in another test is equine BuChE (Equus caballus, UniProt P81908). As to the kind of experiment: biochemical. The following applies: mean of triplicate. The class given is biochemical.
Chain of equine BuChE (P81908 whole entry): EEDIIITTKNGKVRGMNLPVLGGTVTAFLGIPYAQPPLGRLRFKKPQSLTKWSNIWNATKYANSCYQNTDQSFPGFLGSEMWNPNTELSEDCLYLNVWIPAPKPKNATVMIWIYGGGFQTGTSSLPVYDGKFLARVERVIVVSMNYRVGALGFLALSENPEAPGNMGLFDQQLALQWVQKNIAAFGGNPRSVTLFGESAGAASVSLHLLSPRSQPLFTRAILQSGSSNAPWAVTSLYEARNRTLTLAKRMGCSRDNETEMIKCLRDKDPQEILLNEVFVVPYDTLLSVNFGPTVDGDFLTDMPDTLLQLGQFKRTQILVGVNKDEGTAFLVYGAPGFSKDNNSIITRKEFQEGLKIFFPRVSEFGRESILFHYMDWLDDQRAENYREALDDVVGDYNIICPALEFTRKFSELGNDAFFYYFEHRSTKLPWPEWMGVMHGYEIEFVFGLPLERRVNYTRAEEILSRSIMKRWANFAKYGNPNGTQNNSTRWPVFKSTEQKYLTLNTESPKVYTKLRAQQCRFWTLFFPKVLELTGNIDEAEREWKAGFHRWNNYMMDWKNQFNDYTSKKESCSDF

Chain of human recombinant AChE (P22303 32-614): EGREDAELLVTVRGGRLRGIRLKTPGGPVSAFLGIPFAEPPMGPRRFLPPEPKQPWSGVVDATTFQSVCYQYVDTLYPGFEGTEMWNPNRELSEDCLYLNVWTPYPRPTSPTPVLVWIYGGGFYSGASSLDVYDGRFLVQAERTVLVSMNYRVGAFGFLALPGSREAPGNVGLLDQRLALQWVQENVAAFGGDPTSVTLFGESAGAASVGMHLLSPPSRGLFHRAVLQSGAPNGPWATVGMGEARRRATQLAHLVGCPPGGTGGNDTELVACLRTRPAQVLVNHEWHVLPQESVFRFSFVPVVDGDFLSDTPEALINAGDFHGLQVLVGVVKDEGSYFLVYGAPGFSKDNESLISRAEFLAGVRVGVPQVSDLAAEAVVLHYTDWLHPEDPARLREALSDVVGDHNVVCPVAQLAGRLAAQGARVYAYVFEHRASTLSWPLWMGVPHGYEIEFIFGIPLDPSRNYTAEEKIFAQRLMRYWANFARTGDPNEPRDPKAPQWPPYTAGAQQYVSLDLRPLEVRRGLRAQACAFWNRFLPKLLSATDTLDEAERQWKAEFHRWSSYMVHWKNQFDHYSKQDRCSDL

For `CCN(CC)C(=O)Cc1ccc(/C=C/C(=O)c2c(O)cc(OC)cc2OC)cc1` [Compound 4c, (E)-N,N-diethyl-2-(4-(3-(2-hydroxy-4,6-dimethoxyphenyl)-3-oxoprop-1-en-1-yl)phenyl)acetamide], at human recombinant AChE, the inhibition at 10 µM was found to be 87.5%, the Selectivity index is >30 and the IC50 amounted to 3.3 ± 1.3 µM. Besides, the IC50 against equine BuChE is > 100 µM.
In the case of `COc1ccc(C(=O)/C=C/c2ccc(CC(=O)N3CCCC3)cc2)c(O)c1` [Compound 4d, (E)-1-(2-hydroxy-4-methoxyphenyl)-3-(4-(2-oxo-2-(pyrrolidin-1-yl)ethyl)phenyl)prop-2-en-1-one], the inhibition at 10 µM on human recombinant AChE came out at 30.8%.
Regarding `COc1ccc(C(=O)/C=C/c2ccc(OCCN3CCCC3)cc2)c(O)c1` [Compound 8b, (E)-1-(2-hydroxy-4-methoxyphenyl)-3-(4-(2-(pyrrolidin-1-yl)ethoxy)phenyl)prop-2-en-1-one], at human recombinant AChE, the inhibition at 10 µM was found to be 83%, the Selectivity index came out at 5.1 and the IC50 was determined as 12.8 ± 4.8 µM. The same compound registered an IC50 on equine BuChE of 65.6 ± 14.8 µM.
On to `COc1cc(O)c(C(=O)/C=C/c2ccc(CC(=O)O)cc2)c(OC)c1` [Compound 4h, (E)-2-(4-(3-(2-hydroxy-4,6-dimethoxyphenyl)-3-oxoprop-1-en-1-yl)phenyl)acetic acid], for which the inhibition at 10 µM on human recombinant AChE was 15.6%.
With `CCN(CC)C(=O)Cc1ccc(/C=C/C(=O)c2cc(OC)c(OC)cc2O)cc1` [Compound 4b, (E)-N,N-diethyl-2-(4-(3-(2-hydroxy-4,5-dimethoxyphenyl)-3-oxoprop-1-en-1-yl)phenyl)acetamide], the inhibition at 10 µM on human recombinant AChE is 58.5%.
Consider `O=C(O)Cc1ccc(/C=C/C(=O)c2ccccc2O)cc1` [Compound 4f, (E)-2-(4-(3-(2-hydroxyphenyl)-3-oxoprop-1-en-1-yl)phenyl)acetic acid], for which the inhibition at 10 µM at human recombinant AChE stood at 10.7%.
`CCN(CC)C(=O)Cc1ccc(/C=C/C(=O)c2ccc(OC)cc2O)cc1` [Compound 4a, (E)-N,N-diethyl-2-(4-(3-(2-hydroxy-4-methoxyphenyl)-3-oxoprop-1-en-1yl)phenyl)acetamide]: the inhibition at 10 µM on human recombinant AChE came to 67.2%.
With `COc1cc(O)c(C(=O)/C=C/c2ccc(OCCN3CCCCC3)cc2)cc1OC` [Compound 8c, (E)-1-(2-hydroxy-4,5-dimethoxyphenyl)-3-(4-(2-(piperidin-1-yl)ethoxy)phenyl)prop-2-en-1-one], on human recombinant AChE, the inhibition at 10 µM was 52.5%.
As for `COc1ccc(C(=O)/C=C/c2ccc(OCCN3CCCCC3)cc2)c(O)c1` [Compound 8a, (E)-1-(2-hydroxy-4-methoxyphenyl)-3-(4-(2-(piperidin-1-yl)ethoxy)phenyl)prop-2-en-1-one], at human recombinant AChE, the inhibition at 10 µM worked out at 79.9%, the Selectivity index is reported as >24 and the 50% inhibitory concentration (IC50) turned out to be 4.2 ± 1.3 µM. Moreover, on equine BuChE, the “Equine BuChE IC50” value is “inactive” and the IC50 was > 100 µM.
Take `COc1ccc(O)c(C(=O)/C=C/c2ccc(CC(=O)O)cc2)c1` [Compound 4g, (E)-2-(4-(3-(2-hydroxy-5-methoxyphenyl)-3-oxoprop-1-en-1-yl)phenyl)acetic acid]: at human recombinant AChE, the inhibition at 10 µM is 27%.
Turning to `COc1cc(O)c(C(=O)/C=C/c2ccc(CC(=O)N3CCCC3)cc2)cc1OC` [Compound 4e, (E)-1-(2-hydroxy-4,5-dimethoxyphenyl)-3-(4-(2-oxo-2-(pyrrolidin-1-yl)ethyl)phenyl)prop-2-en-1-one], the inhibition at 10 µM at human recombinant AChE was determined as 58.9%.
As to `COc1cc(O)c(C(=O)/C=C/c2ccc(OCCN3CCCC3)cc2)c(OC)c1` [Compound 8f, (E)-1-(2-hydroxy-4,6-dimethoxyphenyl)-3-(4-(2-(pyrrolidin-1-yl)ethoxy)phenyl)prop-2-en-1-one], at human recombinant AChE, the inhibition at 10 µM turned out to be 81.4%, the Selectivity index stood at 1.7 and the half-inhibitory concentration (IC50) was found to be 18.5 ± 3.8 µM. At equine BuChE, this compound displayed an IC50 of 31.3 ± 8.2 µM.
Turning to `COc1cc(O)c(C(=O)/C=C/c2ccc(OCCN3CCCCC3)cc2)c(OC)c1` [Compound 8e, (E)-1-(2-hydroxy-4,6-dimethoxyphenyl)-3-(4-(2-(piperidin-1-yl)ethoxy)phenyl)prop-2-en-1-one], on human recombinant AChE, the inhibition at 10 µM is 83.6%, the Selectivity index turned out to be 4.0 and the IC50 turned out to be 4.6 ± 0.9 µM. In addition, the IC50 against equine BuChE worked out at 18.3 ± 8 µM.
For `COc1cc(O)c(C(=O)/C=C/c2ccc(OCCN3CCCC3)cc2)cc1OC` [Compound 8d, (E)-1-(2-hydroxy-4,5-dimethoxyphenyl)-3-(4-(2-(pyrrolidin-1-yl)ethoxy)phenyl)prop-2-en-1-one], at human recombinant AChE, the inhibition at 10 µM was determined as 80.6%, the Selectivity index was determined as 5.7 and the IC50 is 15.9 ± 1.8 µM. Moreover, on equine BuChE, the IC50 worked out at 89.9 ± 12 µM.

The inhibition is the share of the control response that was lost under treatment. The term IC50 denotes the point on the concentration scale where inhibition reaches its midpoint.
